Where two headings read alike, the source gives them in different places. Starred links: 1 amine or outer side, 2 acyl side, 3 side chain; linkers in the order of their positions; H or OH if unused. Positions of bridges follow the written chain, without caps; N, C: chain ends. Non-standard residues stand in square brackets, D forms with d. Residues, ends and D or L forms follow the SMILES beside them. *: point of attachment. dBip = N[C@H](Cc1ccc(-c2ccccc2)cc1)C(=O)O; Oic = O=C(O)[C@@H]1C[C@@H]2CCCC[C@@H]2N1; Phe(4-Cl) = N[C@@H](Cc1ccc(Cl)cc1)C(=O)O; dPhe(4-Cl) = N[C@H](Cc1ccc(Cl)cc1)C(=O)O; Phe(4-I) = N[C@@H](Cc1ccc(I)cc1)C(=O)O; γGlu = O=C(O)[C@H](CCC(=O)[*:2])N[*:1]; NMeR = CN[C@@H](CCCNC(=N)N)C(=O)O; Tridecanoyl = CCCCCCCCCCCCC(=O)*; hArg = N=C(N)NCCCC[C@H](N)C(=O)O; β3hF = N[C@H](CC(=O)O)Cc1ccccc1; Cha = N[C@@H](CC1CCCCC1)C(=O)O; NMeL = CN[C@@H](CC(C)C)C(=O)O; αMeL = CC(C)C[C@](C)(N)C(=O)O; αMeP = C[C@@]1(C(=O)O)CCCN1; Nle = CCCC[C@H](N)C(=O)O; 3TP = not defined here; AEEA = NCCOCCOCC(=O)O; Aib = CC(C)(N)C(=O)O; Mpa = O=C(O)CCS
Legend:
[1] = In vitro stability in rat kidney homogenate; assay type: in vitro ADME; conditions: for remaining at 4 h, 5 μM: rat, tissue homogenate
How it was run: (§1)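 Stability was followed for 4 hr at 37° C. after spiking peptides (5 μM final) into rat plasma and tissue homogenates. Methanol quench with internal standard preceded high resolution LC-MS.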

[2] = system: Rat Peritoneal Mast Cells
rat APJ receptor = biological target: T1, rat APJ receptor (Rattus norvegicus, UniProt Q9JHG3); assay: [35S] GTPγS assay, rat APJ receptor; assay type: biochemical
T1 construct: expressed in transfected cells
T1 sequence (Q9JHG3 1-377): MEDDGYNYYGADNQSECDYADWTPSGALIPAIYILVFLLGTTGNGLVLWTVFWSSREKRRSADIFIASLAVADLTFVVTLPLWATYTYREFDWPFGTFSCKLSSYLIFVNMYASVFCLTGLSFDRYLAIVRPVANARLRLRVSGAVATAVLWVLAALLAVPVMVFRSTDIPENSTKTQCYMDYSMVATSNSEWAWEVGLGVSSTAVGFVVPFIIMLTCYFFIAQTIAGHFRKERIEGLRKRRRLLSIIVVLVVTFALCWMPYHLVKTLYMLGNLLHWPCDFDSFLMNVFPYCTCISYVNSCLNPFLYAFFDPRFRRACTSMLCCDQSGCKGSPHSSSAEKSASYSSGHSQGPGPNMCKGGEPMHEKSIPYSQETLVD
Experimental: The membranes were incubated with modified peptides in the assay buffer. […] Bound [^35S] GTPγS was separated from free radiolabel by filtration. The filter bound radioactivity was determined by liquid scintillation counting.

[3] = In vivo pharmacokinetics in rat; parameters: species or system Sprague-Dawley rats; conditions: for AUC(0-inf) / half-life: rat, in vivo, sc
Experimental: Evaluation of the in vivo pharmacokinetic profile of several pegylated and lipidated apelin polypeptides in rat was undertaken (FIGS. 9 and 10A-B). The apelin polypeptides were administered to Sprague-Dawley rats through subcutaneous (SC) administration and the pharmacokinetic profile for each polypeptide was subsequently evaluated. […] Blood samples collected over a 24 hr period were transferred into collection tubes containing potassium EDTA and stored on ice until processed. Plasma was obtained from blood by centrifugation. After transfer into a 96-well container, plasma samples were stored in a freezer maintained at approximately −80° C. Quantitative analysis of the apelin polypeptide in rat plasma samples was achieved using multiple reaction monitor (MRM) mode on a LC-MS/MS system.

[4] = In vitro stability in rat plasma; assay type: in vitro ADME
How it was run: as §1

[5] = In vitro stability in rat liver homogenate; assay type: in vitro ADME; conditions: tissue homogenate
How it was run: as §1

liver homogenate = conditions: rat, 37° C., up to 4 hr

CSCC[C@H](NC(=O)[C@@H]1CCCN1C(=O)CNC(=O)[C@H](CCCCN)NC(=O)[C@H](Cc1cnc[nH]1)NC(=O)[C@H](CO)NC(=O)[C@H](CC(C)C)NC(=O)[C@H](CCCNC(=N)N)NC(=O)[C@@H]1CCCN1C(=O)[C@H](CCCNC(=N)N)NC(=O)[C@@H]1CCC(=O)N1)C(=O)N1CCC[C@H]1C(=O)N[C@@H](Cc1ccccc1)C(=O)O [compound 6]
Stability at 4 hours (% Remaining) Kidney ([1]; rat kidney homogenate, 5 μM peptide, 37° C., 4 hr): <1.0 % Remaining
induction of histamine release from rat mast cells [2]: inactive at the highest concentrations tested

CC(=O)N[C@H](CCCNC(=N)N)C(=O)N[C@@H](CCC(N)=O)C(=O)N[C@@H](CCCNC(=N)N)C(=O)N1CCC[C@H]1C(=O)N[C@@H](CCCCNC(=N)N)C(=O)N(C)[C@@H](CC(C)C)C(=O)N[C@@H](CO)C(=O)N[C@@H](Cc1c[nH]cn1)C(=O)N[C@@H](CCCCN)C(=O)NCC(=O)N1[C@H](C(=O)N[C@@H](Cc2ccc(I)cc2)C(=O)N2CCC[C@H]2C(=O)N[C@H](Cc2ccc(-c3ccccc3)cc2)C(=O)O)C[C@@H]2CCCC[C@@H]21 [compound 52] (Ac-[dR]QRP[hArg][NMeL]SHKG[Oic][Phe(4-I)]P[dBip]-OH)
EC50 (rat APJ receptor; read-out: EC50 Rat APJ Receptor): 1.14 nM
EC50 [2]: 550 nM

{H2}[MerPr](10KmPEGacetamide)QRP[NMeArg][Cha]SHKG[Oic][Nle][Aib][4-Cl-F]{COOH} (10KmPEGacetamide-[Mpa]QRP[NMeR][Cha]SHKG[Oic][Nle][Aib][Phe(4-Cl)]-OH) [SEQ ID NO: 120]
induction of histamine release from rat mast cells ([2]; rat mast cells): no longer induced histamine release

{Acetyl-NH} Q R P [NMeArg] [Cha] S H K G [Oic] [Nle] [Aib] [4-Cl—F] {COOH} (Ac-QRP[NMeR][Cha]SHKG[Oic][Nle][Aib][Phe(4-Cl)]-OH) [SEQ ID NO: 92]
induction of histamine release from rat mast cells [2]: positive

CCCC[C@H](NC(=O)[C@@H]1CCCN1C(=O)CNC(=O)[C@H](CCCCN)NC(=O)[C@H](Cc1c[nH]cn1)NC(=O)[C@H](CO)NC(=O)[C@H](CC(C)C)NC(=O)[C@H](CCCNC(=N)N)N(C)C(=O)[C@@H]1CCCN1C(=O)[C@H](CCCNC(=N)N)NC(=O)[C@H](CCC(N)=O)NC(=O)COCCOCCNC(=O)COCCOCCNC(=O)CC[C@H](NC(=O)CCC)C(=O)O)C(=O)N1CCC[C@H]1C(=O)N[C@@H](Cc1ccc(Cl)cc1)C(=O)O [SEQ ID NO: 491]
induction of histamine release from rat mast cells [2]: less mast cell degranulation activity

CCCCCCCCCCCCC(=O)N[C@@H](CCC(=O)NCCOCCOCC(=O)NCCOCCOCC(=O)N[C@@H](CCC(N)=O)C(=O)N[C@@H](CCCNC(=N)N)C(=O)N1CCC[C@H]1C(=O)N(C)[C@@H](CCCNC(=N)N)C(=O)N[C@@H](CC1CCCCC1)C(=O)N[C@@H](CO)C(=O)N[C@@H](Cc1c[nH]cn1)C(=O)N[C@@H](CCCCN)C(=O)NCC(=O)N1[C@H](C(=O)N[C@@H](CCCC)C(=O)N2CCC[C@H]2C(=O)N[C@H](CC(=O)O)Cc2ccccc2)C[C@@H]2CCCC[C@@H]21)C(=O)O [Peptide 379] ({Tridecanoyl-γGlu-AEEA-AEEA}-QRP[NMeR][Cha]SHKG[Oic][Nle]P[β3hF]-OH)
AUC(0-inf) ([3]; 0.1 mg/kg): 0.145 µM·h
half-life ([3]; 0.1 mg/kg): 0.261 h

CC[C@H](C)[C@H](N)C(=O)N[C@@H](CCCCN)C(=O)N[C@H]1CSSC[C@@H]2NC(=O)[C@H]([C@@H](C)CC)NC(=O)[C@H](Cc3c[nH]cn3)NC(=O)[C@@H]3CCCN3C(=O)[C@H](CCCCN)NC(=O)[C@H]([C@@H](C)CC)NC(=O)[C@H](C(C)C)NC(=O)[C@H](Cc3c[nH]cn3)NC(=O)[C@H](CCCNC(=N)N)NC(=O)[C@H](CCCCN)NC(=O)[C@H](CSSC[C@@H](C(=O)NCC(=O)N[C@@H](CCCCN)C(=O)N[C@@H](CC(N)=O)C(N)=O)NC(=O)[C@H]([C@@H](C)CC)NC(=O)[C@H](CCCCN)NC(=O)[C@H](CCCNC(=N)N)NC2=O)NC(=O)[C@H](CC(N)=O)NC1=O [MCDP, reference compound] (H-IKCNCKRHVIKPHICRKICGKN-NH2; disulfide 3-15, 5-19 (inferred); N-terminus and C-terminus assumed)
Cause Histamine Release? [2]: Yes
EC50 [2]: 520 nM

CCCCCCCCCCCCC(=O)N[C@@H](CCC(=O)NCCOCCOCC(=O)NCCOCCOCC(=O)N[C@@H](CCC(N)=O)C(=O)N[C@@H](CCCNC(=N)N)C(=O)N1CCC[C@H]1C(=O)N(C)[C@@H](CCCNC(=N)N)C(=O)N[C@@H](CC1CCCCC1)C(=O)N[C@@H](CO)C(=O)N[C@@H](Cc1c[nH]cn1)C(=O)N[C@@H](CCCCN)C(=O)NCC(=O)N1[C@H](C(=O)N[C@@H](CCCC)C(=O)NC(C)(C)C(=O)N[C@@H](Cc2ccc(Cl)cc2)C(=O)O)C[C@@H]2CCCC[C@@H]21)C(=O)O [compound 382] ({Tridecanoyl-γGlu-AEEA-AEEA}-QRP[NMeR][Cha]SHKG[Oic][Nle][Aib][Phe(4-Cl)]-OH)
AUC(0-inf) ([3]; 0.5 mg/kg): 0.0961 µM·h
half-life ([3]; 0.5 mg/kg): 4.1 h
remaining at 4 h, 5 μM [4]: 91%
remaining at 4 h, 5 μM [5]: 6%
remaining at 4 h, 5 μM [1]: 2%

{H2}[3TP](20K-mPEGReg)[hArg]rQ[hArg]Pr[NMeLeu]SHKG[Oic][pI-Phe]P[D-Bip]{COOH} ({20K‑mPEGReg-3TP}-[hArg][dR]Q[hArg]P[dR][NMeL]SHKG[Oic][Phe(4-I)]P[dBip]-OH; reading uncertain) [SEQ ID NO: 103]
plasma concentration in rat ([3]; 20 kDa PEGylated peptides, FIG. 9, 1/10th the dose of the others): high plasma concentrations

CCCCCCCCCCCCC(=O)N[C@@H](CCC(=O)NCCOCCOCC(=O)NCCOCCOCC(=O)N[C@@H](CCC(N)=O)C(=O)N[C@@H](CCCNC(=N)N)C(=O)N1CCC[C@H]1C(=O)N(C)[C@@H](CCCNC(=N)N)C(=O)N[C@@](C)(CC(C)C)C(=O)N[C@@H](CO)C(=O)N[C@@H](Cc1c[nH]cn1)C(=O)N[C@@H](CCCCN)C(=O)NCC(=O)N1[C@H](C(=O)N[C@@H](CCCC)C(=O)N2CCC[C@@]2(C)C(=O)N[C@@H](Cc2ccc(Cl)cc2)C(=O)O)C[C@@H]2CCCC[C@@H]21)C(=O)O [compound 376] ({Tridecanoyl-γGlu-AEEA-AEEA}-QRP[NMeR][αMeL]SHKG[Oic][Nle][αMeP][Phe(4-Cl)]-OH)
AUC(0-inf) ([3]; Sprague-Dawley, 0.5 mg/kg): 0.09 µM·h
half-life ([3]; Sprague-Dawley, 0.5 mg/kg): 1.48 h
remaining at 4 h, 5 μM [4]: 83%
remaining at 4 h, 5 μM [5]: 10%
remaining at 4 h, 5 μM [1]: 13%

{H2} [MerPr] (10K mPEG acetamide) Q r P [hArg] [aMeLeu] S H K G P [Nle] P [4-Cl-F] {COOH}
not cleaved (liver homogenate): >90.0 % remaining at 4 hours

CCCCCCCCCCCCC(=O)N[C@@H](CCC(=O)NCCOCCOCC(=O)NCCOCCOCC(=O)N[C@@H](CCC(N)=O)C(=O)N[C@@H](CCCNC(=N)N)C(=O)N1CCC[C@H]1C(=O)N(C)[C@@H](CCCNC(=N)N)C(=O)N[C@@H](CC1CCCCC1)C(=O)N[C@@H](CO)C(=O)N[C@@H](Cc1c[nH]cn1)C(=O)N[C@@H](CCCCN)C(=O)NCC(=O)N1[C@H](C(=O)N[C@@H](CCCC)C(=O)N2CCC[C@H]2C(=O)N[C@H](CC(=O)O)Cc2ccccc2)C[C@@H]2CCCC[C@@H]21)C(=O)O [compound 379] ({Tridecanoyl-γGlu-AEEA-AEEA}-QRP[NMeR][Cha]SHKG[Oic][Nle]P[β3hF]-OH)
EC50 (rat APJ receptor; Table 16, read-out: EC50 Rat APJ Receptor): 8.37 nM
AUC(0-inf) ([3]; 0.5 mg/kg): 0.052 µM·h
half-life ([3]; 0.5 mg/kg): 2.27 h
remaining at 4 h, 5 μM [4]: 92%
remaining at 4 h, 5 μM [5]: 2%
remaining at 4 h, 5 μM [1]: 1%

{H2} [MerPr] (10K mPEG acetamide) Q [NMehArg] P [NMeArg] [aMeLeu] S H K G P [Nle] P [4-Cl-F] {COOH}
not cleaved (liver homogenate): >90.0 % remaining at 4 hours

CCCC[C@H](NC(=O)[C@@H]1C[C@@H]2CCCC[C@@H]2N1C(=O)CNC(=O)[C@H](CCCCN)NC(=O)[C@H](Cc1c[nH]cn1)NC(=O)[C@H](CO)NC(=O)[C@H](CC1CCCCC1)NC(=O)[C@H](CCCNC(=N)N)N(C)C(=O)[C@@H]1CCCN1C(=O)[C@H](CCCCNC(=N)N)NC(=O)[C@@H](CCC(N)=O)NC(C)=O)C(=O)N1CCC[C@H]1C(=O)N[C@H](Cc1ccc(Cl)cc1)C(=O)O [compound 55] (Ac-[dQ][hArg]P[NMeR][Cha]SHKG[Oic][Nle]P[dPhe(4-Cl)]-OH)
EC50 [2]: 8170 nM

Reference: patent US11807693B2 (priority 2014, dated 2023)
